Test results as given in US20150299188A1, “HETEROCYCLIC COMPOUND” (priority 2012, published 2015).

Each compound was assayed on FLAP (5-lipoxygenase activating protein) (assay: In vitro binding test: displacement of [3H]-7-chloro-3-(5-((3-fluoropyridin-2-yl)methoxy)-2-methylphenyl)-3,4-dihydroquinazolin-2(1H)-one from Sf9 microsome fractions). Details: Sf9 microsome fractions expressing FLAP; 100% = radioligand binding with 10 μM sodium 3-(3-(tert-butylsulfanyl)-1-(4-chlorobenzyl)-5-isopropyl-1H-indol-2-yl)-2,2-dimethylpropanoate, 0% = DMSO; test compound concentration not given.
Parameters: species or system human and mouse
Outline: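 Sf9 microsomes expressing human or mouse FLAP (2 μg/mL) preincubated with compound 10 min at room temperature, then 120 nM tritiated quinazolinone ligand added for 60 min; buffer 100 mM Tris-HCl pH 7.5 with NaCl, EDTA, DTT, glycerol, Tween20. Bound ligand filtered and counted by scintillation; 10 μM indole propanoate defines 100% inhibition, DMSO 0%.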

Compared with O=C(c1cc2c(c(C3CC3)n1)CN(c1cc3c(cc1Cl)CCC(c1ncccc1F)O3)C(=O)N2)N1CC(O)C1 (stereo not shown) [Example 112, 3-(6-chloro-2-(3-fluoropyridin-2-yl)-3,4-dihydro-2H-chromen-7-yl)-5-cyclopropyl-7-((3-hydroxyazetidin-1-yl)carbonyl)-3,4-dihydropyrido[4,3-d]pyrimidin-2(1H)-one], CC(C)(O)CNC(=O)c1cc2c(c(C3CC3)n1)CN(c1cc3c(cc1Cl)CCC(c1ncccc1F)O3)C(=O)N2 (stereo not shown) [Example 114, 3-(6-chloro-2-(3-fluoropyridin-2-yl)-3,4-dihydro-2H-chromen-7-yl)-5-cyclopropyl-N-(2-hydroxy-2-methylpropyl)-2-oxo-1,2,3,4-tetrahydropyrido[4,3-d]pyrimidine-7-carboxamide] is higher in “inhibitory rate (%)” value: 103% for the first, 106% for the second.

Going from O=C1OCCN1c1cc2c(c(C3CC3)n1)CN(c1cc3c(cc1Cl)CCC(c1ncccc1F)O3)C(=O)N2 (stereo not shown) [Example 113, 3-(6-chloro-2-(3-fluoropyridin-2-yl)-3,4-dihydro-2H-chromen-7-yl)-5-cyclopropyl-7-(2-oxo-1,3-oxazolidin-3-yl)-3,4-dihydropyrido[4,3-d]pyrimidin-2(1H)-one] to O=C1COCCN1c1cc2c(c(C3CC3)n1)CN(c1cc3c(cc1Cl)CCC(c1ncccc1F)O3)C(=O)N2 (stereo not shown) [Example 120, 3-(6-chloro-2-(3-fluoropyridin-2-yl)-3,4-dihydro-2H-chromen-7-yl)-5-cyclopropyl-7-(3-oxomorpholin-4-yl)-3,4-dihydropyrido[4,3-d]pyrimidin-2(1H)-one], the “inhibitory rate (%)” value falls from 114% to 100%.

Compared with O=C1Nc2cc(-c3ccn[nH]3)nc(C3CC3)c2CN1c1cc2c(cc1Cl)CCC(c1ncccc1F)O2 (stereo not shown) [Example 115, 3-(6-chloro-2-(3-fluoropyridin-2-yl)-3,4-dihydro-2H-chromen-7-yl)-5-cyclopropyl-7-(1H-pyrazol-5-yl)-3,4-dihydropyrido[4,3-d]pyrimidin-2(1H)-one], O=C1Nc2cc(-c3cn[nH]c3)nc(C3CC3)c2CN1c1cc2c(cc1Cl)CCC(c1ncccc1F)O2 (stereo not shown) [Example 116, 3-(6-chloro-2-(3-fluoropyridin-2-yl)-3,4-dihydro-2H-chromen-7-yl)-5-cyclopropyl-7-(1H-pyrazol-4-yl)-3,4-dihydropyrido[4,3-d]pyrimidin-2(1H)-one] is lower in “inhibitory rate (%)” value: 106% for the first, 102% for the second.

Compared with O=C1Nc2cc(-c3n[nH]c(=O)o3)nc(C3CC3)c2CN1c1cc2c(cc1Cl)CCC(c1ncccc1F)O2 (stereo not shown) [Example 117, 3-(6-chloro-2-(3-fluoropyridin-2-yl)-3,4-dihydro-2H-chromen-7-yl)-5-cyclopropyl-7-(5-oxo-4,5-dihydro-1,3,4-oxadiazol-2-yl)-3,4-dihydropyrido[4,3-d]pyrimidin-2(1H)-one], Cc1n[nH]c(-c2cc3c(c(C4CC4)n2)CN(c2cc4c(cc2Cl)CCC(c2ncccc2F)O4)C(=O)N3)n1 (stereo not shown) [Example 119, 3-(6-chloro-2-(3-fluoropyridin-2-yl)-3,4-dihydro-2H-chromen-7-yl)-5-cyclopropyl-7-(3-methyl-1H-1,2,4-triazol-5-yl)-3,4-dihydropyrido[4,3-d]pyrimidin-2(1H)-one] is higher in “inhibitory rate (%)” value: 106% for the first, 107% for the second.

Going from O=C1Nc2cc(-c3noc(=S)[nH]3)nc(C3CC3)c2CN1c1cc2c(cc1Cl)CCC(c1ncccc1F)O2 (stereo not shown) [Example 118, 3-(6-chloro-2-(3-fluoropyridin-2-yl)-3,4-dihydro-2H-chromen-7-yl)-5-cyclopropyl-7-(5-thioxo-4,5-dihydro-1,2,4-oxadiazol-3-yl)-3,4-dihydropyrido[4,3-d]pyrimidin-2(1H)-one] to O=C1Nc2cc(-c3nsc(=O)[nH]3)nc(C3CC3)c2CN1c1cc2c(cc1Cl)CCC(c1ncccc1F)O2 (stereo not shown) [Example 134, 3-(6-chloro-2-(3-fluoropyridin-2-yl)-3,4-dihydro-2H-chromen-7-yl)-5-cyclopropyl-7-(5-oxo-4,5-dihydro-1,2,4-thiadiazol-3-yl)-3,4-dihydropyrido[4,3-d]pyrimidin-2(1H)-one], the “inhibitory rate (%)” value falls from 104% to 91%.

Going from Cc1noc(-c2cc3c(c(C4CC4)n2)CN(c2cc4c(cc2Cl)CCC(c2ncccc2F)O4)C(=O)N3)n1 (stereo not shown) [Example 121, 3-(6-chloro-2-(3-fluoropyridin-2-yl)-3,4-dihydro-2H-chromen-7-yl)-5-cyclopropyl-7-(3-methyl-1,2,4-oxadiazol-5-yl)-3,4-dihydropyrido[4,3-d]pyrimidin-2(1H)-one] to O=C1Nc2cc(-c3nnco3)nc(C3CC3)c2CN1c1cc2c(cc1Cl)CCC(c1ncccc1F)O2 (stereo not shown) [Example 124, 3-(6-chloro-2-(3-fluoropyridin-2-yl)-3,4-dihydro-2H-chromen-7-yl)-5-cyclopropyl-7-(1,3,4-oxadiazol-2-yl)-3,4-dihydropyrido[4,3-d]pyrimidin-2(1H)-one], the “inhibitory rate (%)” value falls from 111% to 104%.

Going from COc1cc2c(c(C3CC3)n1)CN(c1cc3c(cc1C)CCC(c1ncccc1F)O3)C(=O)N2 (stereo not shown) [Example 122, 5-cyclopropyl-3-(2-(3-fluoropyridin-2-yl)-6-methyl-3,4-dihydro-2H-chromen-7-yl)-7-methoxy-3,4-dihydropyrido[4,3-d]pyrimidin-2(1H)-one] to Cc1cc2c(cc1N1Cc3c(cc(OC(F)F)nc3C3CC3)NC1=O)OC(c1ncccc1F)CC2 (stereo not shown) [Example 128, 5-cyclopropyl-7-(difluoromethoxy)-3-(2-(3-fluoropyridin-2-yl)-6-methyl-3,4-dihydro-2H-chromen-7-yl)-3,4-dihydropyrido[4,3-d]pyrimidin-2 (1H)-one], the “inhibitory rate (%)” value rises from 106% to 111%.

Compared with Cc1cc2c(cc1N1Cc3c(cc(-n4cc(CO)cn4)nc3C3CC3)NC1=O)OC(c1ncccc1F)CC2 (stereo not shown) [Example 123, 5-cyclopropyl-3-(2-(3-fluoropyridin-2-yl)-6-methyl-3,4-dihydro-2H-chromen-7-yl)-7-(4-(hydroxymethyl)-1H-pyrazol-1-yl)-3,4-dihydropyrido[4,3-d]pyrimidin-2(1H)-one], Cc1cnn(-c2cc3c(c(C4CC4)n2)CN(c2cc4c(cc2C)CCC(c2ncccc2F)O4)C(=O)N3)c1 (stereo not shown) [Example 133, 5-cyclopropyl-3-(2-(3-fluoropyridin-2-yl)-6-methyl-3,4-dihydro-2H-chromen-7-yl)-7-(4-methyl-1H-pyrazol-1-yl)-3,4-dihydropyrido[4,3-d]pyrimidin-2(1H)-one] is higher in “inhibitory rate (%)” value: 98% for the first, 100% for the second.

Compared with O=C1CNCCN1c1cc2c(c(C3CC3)n1)CN(c1cc3c(cc1Cl)CCC(c1ncccc1F)O3)C(=O)N2 (stereo not shown) [Example 125, 3-(6-chloro-2-(3-fluoropyridin-2-yl)-3,4-dihydro-2H-chromen-7-yl)-5-cyclopropyl-7-(2-oxopiperazin-1-yl)-3,4-dihydropyrido[4,3-d]pyrimidin-2(1H)-one], O=C1NCCN1c1cc2c(c(C3CC3)n1)CN(c1cc3c(cc1Cl)CCC(c1ncccc1F)O3)C(=O)N2 (stereo not shown) [Example 131, 3-(6-chloro-2-(3-fluoropyridin-2-yl)-3,4-dihydro-2H-chromen-7-yl)-5-cyclopropyl-7-(2-oxoimidazolidin-1-yl)-3,4-dihydropyrido[4,3-d]pyrimidin-2(1H)-one] is higher in “inhibitory rate (%)” value: 95% for the first, 101% for the second.

Compared with Cc1noc(C)c1-c1ncc(Cl)c2c1NC(=O)N(c1cc3c(cc1Cl)CCC(c1ncccc1F)O3)C2 (stereo not shown) [Example 126, 5-chloro-3-(6-chloro-2-(3-fluoropyridin-2-yl)-3,4-dihydro-2H-chromen-7-yl)-8-(3,5-dimethyl-1,2-oxazol-4-yl)-3,4-dihydropyrido[3,4-d]pyrimidin-2(1H)-one], Cc1cc2c(cc1N1Cc3c(Cl)cnc(C)c3NC1=O)OC(c1ncccc1F)CC2 (stereo not shown) [Example 129, 5-chloro-3-(2-(3-fluoropyridin-2-yl)-6-methyl-3,4-dihydro-2H-chromen-7-yl)-8-methyl-3,4-dihydropyrido[3,4-d]pyrimidin-2(1H)-one] is higher in “inhibitory rate (%)” value: 113% for the first, 114% for the second.

First: O=C1Nc2c(C3=CCOCC3)ncc(Cl)c2CN1c1cc2c(cc1Cl)CCC(c1ncccc1F)O2 (stereo not shown) [Example 127, 5-chloro-3-(6-chloro-2-(3-fluoropyridin-2-yl)-3,4-dihydro-2H-chromen-7-yl)-8-(3,6-dihydro-2H-pyran-4-yl)-3,4-dihydropyrido[3,4-d]pyrimidin-2(1H)-one]
Second: O=C1Nc2c(N3CCSCC3)ncc(Cl)c2CN1c1cc2c(cc1Cl)CCC(c1ncccc1F)O2 (stereo not shown) [Example 130, 5-chloro-3-(6-chloro-2-(3-fluoropyridin-2-yl)-3,4-dihydro-2H-chromen-7-yl)-8-(thiomorpholin-4-yl)-3,4-dihydropyrido[3,4-d]pyrimidin-2(1H)-one]
The “inhibitory rate (%)” value of the first is lower: 98% for the first, 101% for the second.

Cc1cc2c(cc1N1Cc3c(cc(-n4cccn4)nc3C3CC3)NC1=O)OC(c1ncccc1F)CC2 (stereo not shown) [Example 132, 5-cyclopropyl-3-(2-(3-fluoropyridin-2-yl)-6-methyl-3,4-dihydro-2H-chromen-7-yl)-7-(1H-pyrazol-1-yl)-3,4-dihydropyrido[4,3-d]pyrimidin-2(1H)-one] and Cc1cc2c(cc1N1Cc3c(cc(-n4cc(C(N)=O)cn4)nc3C3CC3)NC1=O)OC(c1ncccc1F)CC2 (stereo not shown) [Example 135, 1-(5-cyclopropyl-3-(2-(3-fluoropyridin-2-yl)-6-methyl-3,4-dihydro-2H-chromen-7-yl)-2-oxo-1,2,3,4-tetrahydropyrido[4,3-d]pyrimidin-7-yl)-1H-pyrazole-4-carboxamide] are the same in “inhibitory rate (%)” value: 104% for the first, 104% for the second.

In the case of O=C1Nc2cc(-c3ncon3)nc(C3CC3)c2CN1c1cc2c(cc1Cl)CCC(c1ncccc1F)O2 (stereo not shown) [Example 136, 3-(6-chloro-2-(3-fluoropyridin-2-yl)-3,4-dihydro-2H-chromen-7-yl)-5-cyclopropyl-7-(1,2,4-oxadiazol-3-yl)-3,4-dihydropyrido[4,3-d]pyrimidin-2(1H)-one], the “inhibitory rate (%)” value is reported as 111%.
